Experiments:
[1] = Single dose, dose proportionality pharmacokinetics and safety in patients with multiple sclerosis (Example 4); type: in vivo, human
Description: This example details the pharmacokinetic properties of Fampridine-SR in tablets of the present invention administered to patients with multiple sclerosis. Plasma samples were analyzed for fampridine using a validated LC/MS/MS assay with a sensitivity of 2 ng/mL. Noncompartmental pharmacokinetic parameter values were calculated using standard methodology.
This was an open-label, multi-center, dose proportionality study of orally administered fampridine in patients with multiple sclerosis. Single doses of fampridine were to be given in escalating doses (5 mg, 10 mg, 15 mg, and 20 mg) with at least a four-day interval between administration of each dose of drug. Safety evaluations were to be performed during the 24 hour period following administration of fampridine and blood samples were to be taken at the following times to determine pharmacokinetic parameters: hour 0 (pre-dose), hours 1-8, and hours 10, 12, 14, 18, and 24.
Twenty-three subjects received all 4 treatments, and one subject received only 3 treatments; data from all treatments were analyzed. Dose-dependent parameters (e.g., peak plasma concentration and areas-under-the curve) were normalized to a 10 mg dose for among-dose comparisons.

[2] = Single escalating dose pharmacokinetics and tolerability in patients with chronic incomplete SCI (Example 6)
Description: Each patient was to receive each dose in an ascending fashion. Each dose was to be followed by a 7-day washout period. […] Patients were to continue their fast for 4 hours after dosing and then a standard meal was to be served. Blood samples for pharmacokinetic analysis were to be obtained at Hour 0 (immediately preceding study drug administration) and 1, 2, 3, 4, 5, 6, 8, 10, 12, 16, 20, and 24 hours after each dose. A baseline urine sample was to be collected prior to dosing and urine was to be collected for 24 hours after administration of the study drug at the following intervals: 0.1 to 4 hours; 4.1 to 8 hours; 8.1 to 12 hours; and 12.1 to 24 hours.

[3] = Multiple oral dose pharmacokinetics in patients with SCI (Example 3); details: both sexes, human, in vivo
Description: This example details the plasma concentration of different dosage tablets of a aminopyridine in compositions of the present invention administered to patients with spinal cord injury. Pharmacokinetic results are presented for the subset of 11 patients who completed all dose levels. […] The time of the peak and the plasma elimination half-lives were independent of dose. […] The […] of fampridine ranged from 5.7 to 6.9 hours. There were no apparent differences between males and females.

[4] = Steady state pharmacokinetics and safety in patients with MS (Example 5); type: in vivo, human
Description: This example describes the results of an open-label study to assess the steady state pharmacokinetics of orally administered fampridine (4-aminopyridine) compositions of the present invention in subjects with Multiple Sclerosis. […] Blood samples for pharmacokinetic analysis were collected on Days 1, 7/8, and 14/15 at the following intervals: immediately prior to drug administration (baseline), hourly for the first 8 hours, and 10, 12, and 24 hours post-dose. Additional blood samples were collected 14, 18, and 20 hours post-dose on Day 14, and 30 and 36 hours post-dose on Day 15.

[5] = all doses 5-20 mg, mean and 95% confidence interval, patients with MS
[6] = single doses 10-25 mg, patients with chronic incomplete SCI
[7] = 20 mg twice daily for two weeks, patients with MS

## Nc1ccncc1 [fampridine, 4-aminopyridine]
[1]; [5]
  terminal half-life: 5.47 (5.05, 5.89) h
  terminal rate constant: 0.14 (0.13, 0.15) h^−1
[1]; human, in vivo
  area-under-the-concentration-time curve (normalized to a 10 mg dose): 254 (238, 270) ng-h/ml
  clearance: 637 mL/min
  differences between pharmacokinetic parameters (AUC, Cmax, t1/2) normalized to the 10.0 mg dose: no significant differences
  extrapolated area-under-the-concentration-time curve (normalized to a 10 mg dose): 284 (266, 302) ng-h/ml
  observed peak plasma fampridine concentration (normalized to a 10 mg dose): 24.12 (23.8, 26.6) ng/ml
[1]; single doses 5-20 mg, patients with MS
  tolerability: well tolerated
[2]; 25 mg single dose, fasted, patients with chronic incomplete SCI
  Cmax: 67.4 ng/mL
[2]; human, in vivo
  time of peak concentration (mean tmax) post-dose, over dose levels: 3 to 4 h
[2]; human, in vivo, 10 mg
  Cmax: 27.7 ng/mL
[2]; [6]
  AUC0-24h as percentage of AUC0-∞: at least 92%
  mean plasma half-life (t1/2), independent of dose: approximately 6 hours
[3]
  Tmax: 2.2 to 3 h
  half-life: 5.7 to 6.9 h
[3]; po, 60 mg
  Cmax: 152 ng/mL
[4]; [7]
  changes in corrected QT intervals or QRS amplitudes: no apparent clinically significant changes
  changes in mean clinical laboratory values, vital signs, or physical examination findings from baseline to last visit: no clinically significant changes
  most common treatment-related adverse event: Dizziness
  other treatment-related adverse events: nausea, ataxia, insomnia, and tremor
[4]; 20 mg/dose twice daily for two weeks, subjects with multiple sclerosis
  tolerability: well tolerated
